Patent publication US20250136555A1 (HARBIN MEDISAN PHARMACEUTICAL CO., LTD., priority 2022, published 2025)
Read-outs that look alike come from different tables or passages of the source.

Experiments:
Assay type in all cases: cell-based
PPARδ = molecular target: T1, PPARδ (Homo sapiens, UniProt Q03181); assay: GAL4 hybrid reporter gene method, PPARδ agonistic activity
T1 construct: expressed in transfected cells; host or cells: COS-7
T1 sequence (Q03181 211-439 limits assumed): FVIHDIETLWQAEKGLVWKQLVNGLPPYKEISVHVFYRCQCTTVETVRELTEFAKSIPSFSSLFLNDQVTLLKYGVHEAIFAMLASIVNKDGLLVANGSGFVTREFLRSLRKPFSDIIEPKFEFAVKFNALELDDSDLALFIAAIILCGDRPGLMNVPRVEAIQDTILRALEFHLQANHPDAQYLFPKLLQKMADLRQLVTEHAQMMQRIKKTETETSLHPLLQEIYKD
Method: (§1) Cos-7 cells (African green monkey kidney fibroblasts, commonly used tool cells) were cultured in a 10-cm cell culture dish with a DMEM complete medium containing 10% fetal bovine serum. When growing at a density of about 70%, the cells were ready for transfection. […] The working solution described above was then combined with 8 mL of the DMEM complete medium, and the mixture was added to the cell culture dish for cell transfection. After 4 h of transfection, the cells were digested, resuspended, and seeded into a 96-well plate at 25,000 cells/well. […] 10 μL of a reporter gene detection solution (purchased from Shanghai Beyotime Biological Tech. Co., Ltd.) was added. After the resulting solution was mixed and reacted, biological fluorescence was detected by using a multifunctional microplate reader, and corresponding half maximal effective concentration (EC50) values were calculated according to the detection values. […] Transfection working solutions for different nuclear receptors were prepared and added into COS-7 cells. The preparation method for the transfection working solution was as follows: the constructed pBIND-Gal4-PPARα (LBD) (or pBIND-Gal4-PPARδ (LBD) plasmid or pBIND-Gal4-PPARγ (LBD) plasmid or pBIND-Gal4-RARα (LBD) plasmid or pBIND-Gal4-RARγ (LBD) plasmid or pBIND-Gal4-RARβ (LBD) plasmid or pBIND-Gal4-RORα (LBD) plasmid or pBIND-Gal4-RORγ (LBD) plasmid or pBIND-Gal4-RORβ (LBD) plasmid or pBIND-Gal4-FXR (LBD) plasmid or pBIND-Gal4-RXRα.

PPARγ = molecular target: T2, PPARγ (Homo sapiens, UniProt P37231); assay: GAL4 hybrid reporter gene method, PPARγ agonistic activity
T2 construct: expressed in transfected cells; host or cells: COS-7
T2 sequence (P37231 238-503 limits assumed): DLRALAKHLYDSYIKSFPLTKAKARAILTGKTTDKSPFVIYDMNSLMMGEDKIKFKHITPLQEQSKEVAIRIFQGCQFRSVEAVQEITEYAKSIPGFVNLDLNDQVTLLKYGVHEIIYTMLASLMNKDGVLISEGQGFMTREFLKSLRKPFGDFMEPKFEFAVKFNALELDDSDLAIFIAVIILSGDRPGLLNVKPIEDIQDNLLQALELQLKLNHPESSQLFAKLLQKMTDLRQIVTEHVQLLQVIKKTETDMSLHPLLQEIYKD
Method: as §1

PPARα = molecular target: T3, PPARα (Homo sapiens, UniProt Q07869); assay: GAL4 hybrid reporter gene method, PPARα agonistic activity; conditions: Cos-7 cells, Gal4-PPARα (LBD); GW7647 10 nM = 100%; 16 h
T3 construct: expressed in transfected cells; host or cells: COS-7
T3 sequence (Q07869 239-466 limits assumed): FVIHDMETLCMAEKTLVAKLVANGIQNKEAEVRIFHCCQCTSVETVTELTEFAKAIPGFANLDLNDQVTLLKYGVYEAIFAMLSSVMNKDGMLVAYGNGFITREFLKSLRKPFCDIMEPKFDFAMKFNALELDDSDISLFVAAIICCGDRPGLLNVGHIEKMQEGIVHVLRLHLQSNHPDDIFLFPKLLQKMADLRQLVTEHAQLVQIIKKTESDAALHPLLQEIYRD
Method: as §1

[1] = Cos-7 cells, Gal4-PPARδ (LBD), GW501516 10 nM = 100%, 16 h
[2] = Cos-7 cells, Gal4-PPARγ (LBD), Rosiglitazone 1 μM = 100%, 16 h

| Compound | EC50 (PPARδ; [1]) | PPARδ EC50 (nM) (PPARδ; [1]) | EC50 (PPARγ) | EC50 (PPARα) | EC50 (PPARδ) | EC50 (PPARγ; [2]) | PPARα EC50 (nM) (PPARα) |
| --- | --- | --- | --- | --- | --- | --- | --- |
| Cc1cc(CN2C(=O)CN(c3ccc(OC(F)(F)F)cc3)C2=O)cc(C)c1OC(C)(C)C(=O)O [Compound 3, 2-(4-((2,5-Dioxo-3-(4-(trifluoromethoxy)phenyl)imidazolidin-1-yl)methyl)-2,6-dimethylphenoxy)-2-methylpropionic Acid] | 4.4 nM | low nanomolar levels | 4150 nM |  |  |  |  |
| Cc1cc(CN2C(=O)N(c3ccc(C(F)(F)F)cc3)C(C)(C)C2=O)cc(C)c1OC(C)(C)C(=O)O [Compound 5, 2-(4-((4,4-Dimethyl-2,5-dioxo-3-(4-(trifluoromethyl)phenyl)imidazolin-1-yl)methyl)-2,6-dimethylphenoxy)-2-methylpropionic Acid] | 60 nM |  |  | 252 nM |  |  |  |
| Cc1cc(CN2C(=O)N(c3ccc(OC(F)(F)F)cc3)C(C)(C)C2=O)cc(C)c1OC(C)(C)C(=O)O [Compound 7] |  |  |  | 668 nM | 176 nM |  |  |
| Cc1cc(CN2C(=O)CN(c3ccc(C(F)(F)F)cc3)C2=O)ccc1OCC(=O)O [Compound 9, 2-(4-((2,5-Dioxo-3-(4-(trifluoromethyl)phenyl)imidazolidin-1-yl)methyl)-2-methylphenoxy)acetic Acid] |  |  | > 5000 nM | 994 nM | 976 nM |  |  |
| CC(C)(Oc1ccc(CN2C(=O)CN(c3ccc(C(F)(F)F)cc3)C2=O)cc1C(F)(F)F)C(=O)O [Compound 11, 2-(4-((2,5-Dioxo-3-(4-(trifluoromethyl)phenyl)imidazolidin-1-yl)methyl)-2-(trifluoromethyl)phenoxy)-2-methylpropionic Acid] |  |  | 2480 nM | 77.1 nM | 33.1 nM |  |  |
| Cc1cc(CN2C(=O)CN(c3ccc(C(F)(F)F)cc3)C2=O)cc(Cl)c1OC(C)(C)C(=O)O [Compound 13, 2-(2-Chloro-4-((2,5-dioxo-3-(4-(trifluoromethyl)phenyl)imidazolidin-1-yl)methyl)-6-methylphenoxy)-2-methylpropionic Acid] |  |  | 1290 nM | 1.2 nM | 10.8 nM |  |  |
| CC(C)(Oc1c(Cl)cc(CN2C(=O)CN(c3ccc(C(F)(F)F)cc3)C2=O)cc1Cl)C(=O)O [Compound 17, 2-(2,6-Dichloro-4-((2,5-dioxo-3-(4-(trifluoromethyl)phenyl)imidazolidin-1-yl)methyl)phenoxy)-2-methylpropionic Acid] | 24.8 nM |  |  |  |  |  |  |
| CC(C)(Oc1c(Br)cc(CN2C(=O)CN(c3ccc(C(F)(F)F)cc3)C2=O)cc1Br)C(=O)O [Compound 19, 2-(2,6-Dibromo-4-((2,5-dioxo-3-(4-(trifluoromethyl)phenyl)imidazolidin-1-yl)methyl)phenoxy)-2-methylpropionic Acid] | 23.6 nM |  |  | 2.2 nM |  |  |  |
| CC(C)(Oc1c(F)cc(CN2C(=O)CN(c3ccc(C(F)(F)F)cc3)C2=O)cc1F)C(=O)O [Compound 21, 2-(4-((2,5-Dioxo-3-(4-(trifluoromethyl)phenyl)imidazolin-1-yl)methyl)-2,6-difluorophenoxy)-2-methylpropionic Acid] | 101 nM |  | > 5000 nM | 42.9 nM |  |  |  |
| Cc1ccc(N2CC(=O)N(Cc3cc(C)c(OC(C)(C)C(=O)O)c(C)c3)C2=O)cc1 [Compound 23, 2-(4-((2,5-Dioxo-3-(4-methylphenyl)imidazolin-1-yl)methyl)-2,6-dimethylphenoxy)-2-methylpropionic Acid] | 25.7 nM |  |  | 26.5 nM |  | 629 nM |  |
| Cc1cc(CN2C(=O)CN(c3ccc(F)cc3)C2=O)cc(C)c1OC(C)(C)C(=O)O [Compound 25, 2-(4-((3-(4-Fluorophenyl)-2,5-dioxoimidazolin-1-yl)methyl)-2,6-dimethylphenoxy)-2-methylpropionic Acid] | 72.3 nM |  |  | 101 nM |  | 3640 nM |  |
| Cc1cc(CN2C(=O)CN(c3ccc(Cl)cc3)C2=O)cc(C)c1OC(C)(C)C(=O)O [Compound 27, 2-(4-((3-(4-Chlorophenyl)-2,5-dioxoimidazolin-1-yl)methyl)-2,6-dimethylphenoxy)-2-methylpropionic Acid] |  |  |  | 17 nM |  | 1420 nM |  |
| Cc1cc(N2CC(=O)N(Cc3cc(C)c(OC(C)(C)C(=O)O)c(C)c3)C2=O)ccc1C(F)(F)F [Compound 29, 2-(2,6-Dimethyl-4-((3-(3-methyl-4-(trifluoromethyl)phenyl)-2,5-dioxoimidazolin-1-yl)methyl)phenoxy)-2-methylpropionic Acid] |  | low nanomolar levels | 736 nM | 1.4 nM | 1 nM |  | low nanomolar levels |
| Cc1cc(CN2C(=O)CN(c3ccc(C(F)(F)F)c(F)c3)C2=O)cc(C)c1OC(C)(C)C(=O)O [Compound 31, 2-(2,6-Dimethyl-4-((3-(3-fluoro-4-(trifluoromethyl)phenyl)-2,5-dioxoimidazolin-1-yl)methyl)phenoxy)-2-methylpropionic Acid] | 0.8 nM |  |  | 2.1 nM |  |  |  |
| Cc1cc(CN2C(=O)CN(c3ccc(C(F)(F)F)c(Cl)c3)C2=O)cc(C)c1OC(C)(C)C(=O)O [Compound 33, 2-(2,6-Dimethyl-4-((3-(3-chloro-4-(trifluoromethyl)phenyl)-2,5-dioxoimidazolin-1-yl)methyl)phenoxy)-2-methylpropionic Acid] | 1.7 nM | low nanomolar levels |  | 1 nM |  | 657 nM | low nanomolar levels |
| Cc1cc(CN2C(=O)CN(c3ccccc3)C2=O)cc(C)c1OC(C)(C)C(=O)O [Compound 35, 2-(4-((2,5-Dioxo-3-phenylimidazolin-1-yl)methyl)-2,6-dimethylphenoxy)-2-methylpropionic Acid] | 90.5 nM |  |  | 166 nM |  | 2100 nM |  |
| Cc1cc(CN2C(=O)CN(c3ccc(C#N)cc3)C2=O)cc(C)c1OC(C)(C)C(=O)O [Compound 37, 2-(4-((3-(4-Cyanobenzene)-2,5-dioxoimidazolin-1-yl)methyl)-2,6-dimethylphenoxy)-2-methylpropionic Acid] | 84.4 nM |  |  | 98.1 nM |  | 4060 nM |  |
| COc1ccc(N2CC(=O)N(Cc3cc(C)c(OC(C)(C)C(=O)O)c(C)c3)C2=O)cc1 [Compound 39, 2-(4-((3-(4-Methoxyphenyl)-2,5-dioxoimidazolin-1-yl)methyl)-2,6-dimethylphenoxy)-2-methylpropionic Acid] | 36.1 nM |  |  | 18.8 nM |  | 3370 nM |  |
| Cc1cc(CN2C(=O)CN(c3ccc(-c4ccccc4)cc3)C2=O)cc(C)c1OC(C)(C)C(=O)O [Compound 41] | 6.2 nM | low nanomolar levels |  | 0.9 nM |  | 630 nM | low nanomolar levels |
| CSc1ccc(N2CC(=O)N(Cc3cc(C)c(OC(C)(C)C(=O)O)c(C)c3)C2=O)cc1 [Compound 43] |  | low nanomolar levels |  |  |  |  | low nanomolar levels |
| Cc1cc(CN2C(=O)CN(c3cccc(C(F)(F)F)c3)C2=O)cc(C)c1OC(C)(C)C(=O)O [Compound 45, 2-(4-((2,5-Dioxo-3-(3-(trifluoromethyl)phenyl)imidazolin-1-yl)methyl)-2,6-dimethylphenoxy)-2-methylpropionic Acid] | 5.9 nM | low nanomolar levels |  | 3.8 nM |  | 996 nM | low nanomolar levels |
| Cc1cc(CN2C(=O)CN(c3ccc(Br)cc3)C2=O)cc(C)c1OC(C)(C)C(=O)O [Compound 61, 2-(4-((3-(4-Bromophenyl)-2,5-dioxoimidazolin-1-yl)methyl)-2,6-dimethylphenoxy)-2-methylpropionic Acid] |  |  |  | 3.9 nM |  | 1200 nM | low nanomolar levels |
| Cc1cc(CN2C(=O)CN(c3ccc(C(F)(F)F)cc3)C2=O)cc(C)c1OC(C)C(=O)O (stereo not drawn) [Compound 63, 2-(4-((2,5-Dioxo-3-(4-(trifluoromethyl)phenyl)imidazolin-1-yl)methyl)-2,6-dimethylphenoxy)propionic Acid] |  |  |  | 25.1 nM | 4 nM |  |  |
| Cc1cc(CN2C(=O)CN(c3ccc(C(C)C)cc3)C2=O)cc(C)c1OC(C)(C)C(=O)O [Compound 65, 2-(4-((3-(4-Isopropylphenyl)-2,5-dioxoimidazolin-1-yl)methyl)-2,6-dimethylphenoxy)-2-methylpropionic Acid] |  |  |  | 0.8 nM |  | 971 nM |  |
| CCc1ccc(N2CC(=O)N(Cc3cc(C)c(OC(C)(C)C(=O)O)c(C)c3)C2=O)cc1 [Compound 75, 2-(4-(3-(4-Ethylphenyl)-2,5-dioxoimidazolidin-1-yl)methyl)-2,6-dimethylphenoxy-2-methylpropionic Acid] | 6.3 nM | low nanomolar levels |  | 1 nM |  |  | low nanomolar levels |
| Cc1cc(CN2C(=O)CN(Cc3ccc(C(F)(F)F)cc3)C2=O)cc(C)c1OC(C)(C)C(=O)O [Compound 93] |  |  |  |  |  | 1490 nM |  |
